Structures are written as SMILES. Like-named read-outs stand apart in the source and are kept apart here. Positions of bridges follow the written chain, without caps; N, C: chain ends. Residues, ends and D or L forms follow the SMILES beside them.

Experiment in all cases: cell-based
In experiment [1] the target is hNav1.7 (Homo sapiens, UniProt Q15858). The experiment is classed as cell-based. The conditions noted are these: IonWorks Quattro, read-out: IWQ Use Nav1.7. On the technique in general: In patch-clamp work, channel activity is measured electrically.
Experiment [2] addresses hNav1.5 (Homo sapiens, UniProt Q14524). As to conditions: IonWorks Quattro, read-out: IWQ Use Nav1.5.
The target of experiment [3] is hNav1.3 (Homo sapiens, UniProt Q9NY46). The conditions noted are these: IonWorks Quattro, read-out: IWQ Use Nav1.3.
[4] abbreviates: clamped to −110 mV, depolarized to −10 mV, 5 min after compound, n=2.
Setting [5] is: use-dependent protocol, hNav1.7.
Setting [6] is: use-dependent protocol, hNav1.5.
[7] abbreviates: use-dependent protocol, hNav1.3.

Chain of hNav1.7 (Q15858 whole entry, looked up): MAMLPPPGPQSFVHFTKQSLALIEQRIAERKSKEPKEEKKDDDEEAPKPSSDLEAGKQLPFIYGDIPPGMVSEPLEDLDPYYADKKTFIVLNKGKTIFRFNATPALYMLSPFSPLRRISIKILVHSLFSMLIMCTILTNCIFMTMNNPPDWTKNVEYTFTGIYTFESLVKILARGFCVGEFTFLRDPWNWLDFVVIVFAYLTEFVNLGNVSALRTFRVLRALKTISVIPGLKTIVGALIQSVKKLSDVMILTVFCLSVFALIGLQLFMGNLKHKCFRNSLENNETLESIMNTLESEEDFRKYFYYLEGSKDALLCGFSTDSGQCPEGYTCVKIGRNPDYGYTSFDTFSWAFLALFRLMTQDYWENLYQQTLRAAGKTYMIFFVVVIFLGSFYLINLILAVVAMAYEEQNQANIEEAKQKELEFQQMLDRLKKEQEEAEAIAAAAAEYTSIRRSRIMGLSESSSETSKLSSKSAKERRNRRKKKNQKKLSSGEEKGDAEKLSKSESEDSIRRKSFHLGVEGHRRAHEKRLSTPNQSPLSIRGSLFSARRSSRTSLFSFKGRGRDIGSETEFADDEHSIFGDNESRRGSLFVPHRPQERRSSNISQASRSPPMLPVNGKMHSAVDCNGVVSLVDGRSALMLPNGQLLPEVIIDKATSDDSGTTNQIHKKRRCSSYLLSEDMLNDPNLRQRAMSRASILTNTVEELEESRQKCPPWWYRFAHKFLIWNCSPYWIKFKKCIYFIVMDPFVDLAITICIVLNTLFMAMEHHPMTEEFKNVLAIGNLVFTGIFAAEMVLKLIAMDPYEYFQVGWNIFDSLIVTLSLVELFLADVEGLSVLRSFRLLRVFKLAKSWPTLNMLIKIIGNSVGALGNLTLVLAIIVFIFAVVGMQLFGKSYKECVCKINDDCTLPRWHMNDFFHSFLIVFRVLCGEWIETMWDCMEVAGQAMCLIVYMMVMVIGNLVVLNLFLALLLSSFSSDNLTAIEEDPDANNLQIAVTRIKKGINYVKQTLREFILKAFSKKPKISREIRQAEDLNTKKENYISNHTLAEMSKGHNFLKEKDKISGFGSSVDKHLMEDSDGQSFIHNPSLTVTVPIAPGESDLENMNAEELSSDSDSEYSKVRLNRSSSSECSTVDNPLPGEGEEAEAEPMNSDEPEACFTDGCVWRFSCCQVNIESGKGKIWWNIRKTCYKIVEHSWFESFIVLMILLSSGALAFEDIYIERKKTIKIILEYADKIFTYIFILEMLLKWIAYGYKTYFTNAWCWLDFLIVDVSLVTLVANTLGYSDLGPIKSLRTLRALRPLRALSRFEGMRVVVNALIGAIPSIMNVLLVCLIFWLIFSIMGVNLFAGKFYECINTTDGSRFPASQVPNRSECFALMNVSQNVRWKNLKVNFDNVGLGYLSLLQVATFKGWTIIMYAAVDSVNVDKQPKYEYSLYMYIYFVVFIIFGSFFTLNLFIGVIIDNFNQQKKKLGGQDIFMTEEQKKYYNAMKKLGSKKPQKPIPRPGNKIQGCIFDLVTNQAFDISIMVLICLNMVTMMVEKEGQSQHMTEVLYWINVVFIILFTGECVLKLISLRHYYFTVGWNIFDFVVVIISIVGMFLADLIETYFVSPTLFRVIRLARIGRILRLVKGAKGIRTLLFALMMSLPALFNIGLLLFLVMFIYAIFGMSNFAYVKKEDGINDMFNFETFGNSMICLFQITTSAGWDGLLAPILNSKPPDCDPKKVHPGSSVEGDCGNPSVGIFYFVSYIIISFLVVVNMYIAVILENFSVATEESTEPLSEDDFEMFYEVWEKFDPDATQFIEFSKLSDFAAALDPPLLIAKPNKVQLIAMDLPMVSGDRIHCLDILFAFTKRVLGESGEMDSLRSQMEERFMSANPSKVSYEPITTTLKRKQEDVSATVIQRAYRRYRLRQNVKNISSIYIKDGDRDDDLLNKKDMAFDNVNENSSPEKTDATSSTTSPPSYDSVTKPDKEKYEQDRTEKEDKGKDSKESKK
Chain of hNav1.5 (Q14524 whole entry, looked up): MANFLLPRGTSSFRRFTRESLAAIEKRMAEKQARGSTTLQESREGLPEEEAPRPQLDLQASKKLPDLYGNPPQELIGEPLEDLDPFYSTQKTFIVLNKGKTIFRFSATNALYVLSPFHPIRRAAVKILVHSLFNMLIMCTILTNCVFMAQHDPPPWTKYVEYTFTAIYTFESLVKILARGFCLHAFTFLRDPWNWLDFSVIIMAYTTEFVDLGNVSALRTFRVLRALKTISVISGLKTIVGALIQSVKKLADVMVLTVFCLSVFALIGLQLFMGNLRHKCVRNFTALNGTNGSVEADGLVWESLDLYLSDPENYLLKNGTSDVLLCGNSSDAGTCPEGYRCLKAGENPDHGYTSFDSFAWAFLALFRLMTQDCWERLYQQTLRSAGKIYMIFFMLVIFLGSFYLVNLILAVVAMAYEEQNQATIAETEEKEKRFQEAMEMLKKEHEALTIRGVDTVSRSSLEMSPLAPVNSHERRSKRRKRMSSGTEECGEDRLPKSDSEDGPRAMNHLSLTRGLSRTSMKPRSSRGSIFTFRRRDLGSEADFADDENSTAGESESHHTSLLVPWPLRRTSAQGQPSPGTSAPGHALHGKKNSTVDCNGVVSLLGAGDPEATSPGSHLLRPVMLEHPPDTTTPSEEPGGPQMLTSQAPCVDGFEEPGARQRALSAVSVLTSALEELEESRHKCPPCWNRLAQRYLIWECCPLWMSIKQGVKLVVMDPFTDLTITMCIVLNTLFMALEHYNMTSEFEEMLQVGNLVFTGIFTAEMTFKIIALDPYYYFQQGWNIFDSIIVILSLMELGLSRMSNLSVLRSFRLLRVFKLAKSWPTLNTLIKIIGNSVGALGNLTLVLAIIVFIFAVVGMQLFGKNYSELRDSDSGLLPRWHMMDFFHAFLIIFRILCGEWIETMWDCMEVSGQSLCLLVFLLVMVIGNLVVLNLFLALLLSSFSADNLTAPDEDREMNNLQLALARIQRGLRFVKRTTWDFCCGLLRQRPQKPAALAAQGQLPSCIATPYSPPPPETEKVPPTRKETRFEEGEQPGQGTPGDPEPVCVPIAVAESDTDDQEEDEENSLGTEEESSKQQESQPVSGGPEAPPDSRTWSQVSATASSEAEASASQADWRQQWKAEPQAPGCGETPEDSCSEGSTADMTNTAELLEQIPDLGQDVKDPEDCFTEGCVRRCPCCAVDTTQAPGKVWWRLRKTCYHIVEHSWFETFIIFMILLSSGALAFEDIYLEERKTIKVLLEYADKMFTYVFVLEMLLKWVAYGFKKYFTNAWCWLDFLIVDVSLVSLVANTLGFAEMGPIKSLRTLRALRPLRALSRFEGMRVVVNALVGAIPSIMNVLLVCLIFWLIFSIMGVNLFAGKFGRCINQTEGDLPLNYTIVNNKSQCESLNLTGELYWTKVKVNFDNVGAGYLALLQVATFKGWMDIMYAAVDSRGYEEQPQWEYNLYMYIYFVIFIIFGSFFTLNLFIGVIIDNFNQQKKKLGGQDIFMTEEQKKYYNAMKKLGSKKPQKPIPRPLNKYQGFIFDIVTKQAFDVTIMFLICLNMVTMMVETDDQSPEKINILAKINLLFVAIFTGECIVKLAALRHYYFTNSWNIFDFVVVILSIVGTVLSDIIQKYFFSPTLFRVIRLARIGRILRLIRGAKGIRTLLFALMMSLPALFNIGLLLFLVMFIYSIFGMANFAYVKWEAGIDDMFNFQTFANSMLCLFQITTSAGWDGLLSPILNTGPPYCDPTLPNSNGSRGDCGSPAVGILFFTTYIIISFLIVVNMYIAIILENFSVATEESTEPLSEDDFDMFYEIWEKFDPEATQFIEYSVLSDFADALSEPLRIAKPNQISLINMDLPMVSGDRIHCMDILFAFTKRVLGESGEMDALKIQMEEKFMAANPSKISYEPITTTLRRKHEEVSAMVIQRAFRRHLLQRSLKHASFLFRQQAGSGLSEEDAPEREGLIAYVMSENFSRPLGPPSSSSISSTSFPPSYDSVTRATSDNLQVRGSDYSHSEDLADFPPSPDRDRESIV

As to `CC[C@H](C)[C@@H]1NC(=O)[C@@H]2CSSC[C@@H]3NC(=O)[C@H](C(C)C)NC(=O)[C@H](CC(C)C)NC(=O)[C@H](CC(N)=O)NC(=O)[C@@H]4CCCN4C(=O)[C@H](CCCNC(=N)N)NC(=O)[C@H](CSSC[C@H](NC(=O)[C@@H]4CCCN4)C(=O)N[C@@H](CC(C)C)C(=O)NCC(=O)N[C@@H](Cc4ccccc4)C(=O)N[C@@H](CCSC)C(=O)N[C@@H](CCCNC(=N)N)C(=O)N[C@@H](CCCCN)C(=O)N2)NC(=O)[C@H](CSSC[C@@H](C(=O)N[C@@H](CCCCN)C(=O)N[C@@H](Cc2ccc(O)cc2)C(=O)N[C@H](C(=O)N[C@@H](Cc2ccccc2)C(N)=O)C(C)C)NC(=O)[C@H](Cc2c[nH]c4ccccc24)NC(=O)[C@H](CCCCN)NC(=O)[C@H](Cc2c[nH]cn2)NC(=O)[C@H]([C@@H](C)O)NC(=O)[C@H](CCCNC(=N)N)NC(=O)[C@H](CO)NC3=O)NC(=O)[C@H](CCCCN)NC(=O)[C@H](CC(=O)O)NC(=O)[C@H](CC(N)=O)NC(=O)[C@H](CC(=O)O)NC(=O)[C@@H]2CCCN2C1=O` [SEQ ID NO: 190] (H-PCLGFMRKCIPDNDKCCRPNLVCSRTHKWCKYVF-NH2; disulfide 2-17, 9-23, 16-30), the IC50 in experiment [1] (setting [4]) was found to be 0.09 µM; in experiment [2] (setting [4]) it was 9.73 µM; in experiment [3] (setting [4]), 0.04 µM.

For the compound `CC[C@H](C)[C@@H]1NC(=O)[C@@H]2CSSC[C@@H]3NC(=O)[C@H](C(C)C)NC(=O)[C@H](CC(C)C)NC(=O)[C@H](CC(N)=O)NC(=O)[C@@H]4CCCN4C(=O)[C@H](CCCNC(=N)N)NC(=O)[C@H](CSSC[C@H](NC(=O)[C@@H](N)CC(=O)O)C(=O)N[C@@H](CC(C)C)C(=O)NCC(=O)N[C@@H](C)C(=O)N[C@@H](CCSC)C(=O)N[C@@H](CCCNC(=N)N)C(=O)N[C@@H](CCCCN)C(=O)N2)NC(=O)[C@H](CSSC[C@@H](C(=O)N[C@@H](CCCCN)C(=O)N[C@@H](Cc2ccc(O)cc2)C(=O)N[C@H](C(=O)N[C@@H](Cc2ccccc2)C(N)=O)C(C)C)NC(=O)[C@H](Cc2c[nH]c4ccccc24)NC(=O)[C@H](CCCCN)NC(=O)[C@H](Cc2c[nH]cn2)NC(=O)[C@H](CCC(=O)O)NC(=O)[C@H](CCCNC(=N)N)NC(=O)[C@H](CO)NC3=O)NC(=O)[C@H](CCCCN)NC(=O)[C@H](CC(=O)O)NC(=O)[C@H](CC(N)=O)NC(=O)[C@H](CC(=O)O)NC(=O)[C@@H]2CCCN2C1=O` [compound 787] (H-DCLGAMRKCIPDNDKCCRPNLVCSREHKWCKYVF-NH2; disulfide 2-17, 9-23, 16-30), the IC50 was > 5 µM in experiment [1] (use-dependent block, hNav1.7); 27.3 µM in experiment [2] (use-dependent block, hNav1.5); > 5 µM in experiment [3] (use-dependent block, hNav1.3).

`CC[C@H](C)[C@@H]1NC(=O)[C@@H]2CSSC[C@@H]3NC(=O)[C@H](C(C)C)NC(=O)[C@H](CC(C)C)NC(=O)[C@H](CC(N)=O)NC(=O)[C@@H]4CCCN4C(=O)[C@H](CCCNC(=N)N)NC(=O)[C@H](CSSC[C@H](NC(=O)[C@@H](N)CC(=O)O)C(=O)N[C@@H](CC(C)C)C(=O)NCC(=O)N[C@@H](Cc4ccccc4)C(=O)N[C@@H](CCC(N)=O)C(=O)N[C@@H](CCCNC(=N)N)C(=O)N[C@@H](CCCCN)C(=O)N2)NC(=O)[C@H](CSSC[C@@H](C(=O)N[C@@H](CCCCN)C(=O)N[C@@H](Cc2ccc(O)cc2)C(=O)N[C@H](C(=O)N[C@@H](Cc2ccccc2)C(N)=O)C(C)C)NC(=O)[C@H](Cc2c[nH]c4ccccc24)NC(=O)[C@H](CCCCN)NC(=O)[C@H](Cc2c[nH]cn2)NC(=O)[C@H]([C@@H](C)O)NC(=O)[C@H](CCCNC(=N)N)NC(=O)[C@H](CO)NC3=O)NC(=O)[C@H](CCCCN)NC(=O)[C@H](CC(=O)O)NC(=O)[C@H](CC(N)=O)NC(=O)[C@H](CC(=O)O)NC(=O)[C@@H]2CCCN2C1=O` [SEQ ID NO: 279] (H-DCLGFQRKCIPDNDKCCRPNLVCSRTHKWCKYVF-NH2; disulfide 2-17, 9-23, 16-30): the IC50 in experiment [1] (setting [4]) is 8.62 µM; in experiment [2] (setting [4]) it was 7.57 µM; in experiment [3] (setting [4]), 5.96 µM.

In the case of `CC[C@H](C)[C@@H]1NC(=O)[C@@H]2CSSC[C@@H]3NC(=O)[C@H](C(C)C)NC(=O)[C@H](CC(C)C)NC(=O)[C@H](CC(N)=O)NC(=O)[C@@H]4CCCN4C(=O)[C@H](CCCNC(=N)N)NC(=O)[C@H](CSSC[C@H](NC(=O)[C@@H](N)CC(=O)O)C(=O)N[C@@H](CC(C)C)C(=O)NCC(=O)N[C@@H](Cc4ccccc4)C(=O)N[C@@H](CCSC)C(=O)N[C@@H](CCCNC(=N)N)C(=O)N[C@@H](CCCCN)C(=O)N2)NC(=O)[C@H](CSSC[C@@H](C(=O)N[C@@H](CCCCN)C(=O)N[C@@H](Cc2ccc(O)cc2)C(=O)N2CCC[C@H]2C(=O)N[C@@H](Cc2ccccc2)C(N)=O)NC(=O)[C@H](Cc2c[nH]c4ccccc24)NC(=O)[C@H](CCCCN)NC(=O)[C@H](Cc2c[nH]cn2)NC(=O)[C@H]([C@@H](C)O)NC(=O)[C@H](CCCNC(=N)N)NC(=O)[C@H](CO)NC3=O)NC(=O)[C@H](CCCCN)NC(=O)[C@H](CC(=O)O)NC(=O)[C@H](CC(N)=O)NC(=O)[C@H](CC(=O)O)NC(=O)[C@@H]2CCCN2C1=O` [compound 398] (H-DCLGFMRKCIPDNDKCCRPNLVCSRTHKWCKYPF-NH2; disulfide 2-17, 9-23, 16-30), the IC50 in experiment [1] (Table 26, use, […]) turned out to be 5.19 µM; in experiment [2] (Table 26, use, […]), 6.93 µM; in experiment [3] (Table 26, use, […]), 3.34 µM.

Take `CC[C@H](C)[C@@H]1NC(=O)[C@@H]2CSSC[C@@H]3NC(=O)[C@H](C(C)C)NC(=O)[C@H](CC(C)C)NC(=O)[C@H](CC(N)=O)NC(=O)[C@@H]4CCCN4C(=O)[C@H](CCCNC(=N)N)NC(=O)[C@H](CSSC[C@H](NC(=O)[C@@H](N)CC(=O)O)C(=O)N[C@@H](CC(C)C)C(=O)NCC(=O)N[C@@H](C)C(=O)NCC(=O)N[C@@H](CCCNC(=N)N)C(=O)N[C@@H](CCCCN)C(=O)N2)NC(=O)[C@H](CSSC[C@@H](C(=O)N[C@@H](CCCCN)C(=O)N[C@@H](Cc2ccc(O)cc2)C(=O)N[C@H](C(=O)N[C@@H](Cc2ccccc2)C(N)=O)C(C)C)NC(=O)[C@H](Cc2c[nH]c4ccccc24)NC(=O)[C@H](CCCCN)NC(=O)[C@H](Cc2c[nH]cn2)NC(=O)[C@H]([C@@H](C)O)NC(=O)[C@H](CCCNC(=N)N)NC(=O)[C@H](CO)NC3=O)NC(=O)[C@H](CCCCN)NC(=O)[C@H](CC(=O)O)NC(=O)[C@H](CC(N)=O)NC(=O)[C@H](CC(=O)O)NC(=O)[C@@H]2CCCN2C1=O` [compound 697] (H-DCLGAGRKCIPDNDKCCRPNLVCSRTHKWCKYVF-NH2; disulfide 2-17, 9-23, 16-30): the IC50 in experiment [1] (setting [5]) was 8.1 µM; in experiment [2] (setting [6]), > 5 µM; in experiment [3] (setting [7]) it was 4.4 µM.

Take `CSCC[C@@H]1NC(=O)[C@H](Cc2ccccc2)NC(=O)CNC(=O)[C@H](CC(C)C)NC(=O)[C@@H](NC(=O)[C@@H](N)CC(=O)O)CSSC[C@@H]2NC(=O)[C@@H]3CSSC[C@@H](C(=O)N[C@@H](CCCCN)C(=O)N[C@@H](Cc4cccc5ccccc45)C(=O)N[C@H](C(=O)N[C@@H](Cc4ccccc4)C(N)=O)C(C)C)NC(=O)[C@H](Cc4c[nH]c5ccccc45)NC(=O)[C@H](CCCCN)NC(=O)[C@H](Cc4c[nH]cn4)NC(=O)[C@H]([C@@H](C)O)NC(=O)[C@H](CCCNC(=N)N)NC(=O)[C@H](CO)NC(=O)[C@H](CSSC[C@H](NC(=O)[C@H](CCCCN)NC(=O)[C@H](CCCNC(=N)N)NC1=O)C(=O)N[C@@H](Cc1cccc4ccccc14)C(=O)N1CCC[C@H]1C(=O)N[C@@H](CC(=O)O)C(=O)N[C@@H](CC(N)=O)C(=O)N[C@@H](CC(=O)O)C(=O)N[C@@H](CCCCN)C(=O)N3)NC(=O)[C@H](C(C)C)NC(=O)[C@H](CC(C)C)NC(=O)[C@H](CC(N)=O)NC(=O)[C@@H]1CCCN1C(=O)[C@H](CCCNC(=N)N)NC2=O` [compound 452]: the IC50 in experiment [1] (use-dependent block, hNav1.7) was 0.005 µM; in experiment [2] (use-dependent block, hNav1.5), > 5 µM; in experiment [3] (use-dependent block, hNav1.3) it was 0.003 µM.

For `CC[C@H](C)[C@@H]1NC(=O)[C@@H]2CSSC[C@@H]3NC(=O)[C@H](C(C)C)NC(=O)[C@H](CC(C)C)NC(=O)[C@H](CC(N)=O)NC(=O)[C@@H]4CCCN4C(=O)[C@H](CCCNC(=N)N)NC(=O)[C@H](CSSC[C@H](NC(=O)[C@@H](N)CC(=O)O)C(=O)N[C@@H](CC(C)C)C(=O)NCC(=O)N[C@@H](Cc4ccc(I)cc4)C(=O)N[C@@H](CC(C)C)C(=O)N[C@@H](CCCNC(=N)N)C(=O)N[C@@H](CCCCN)C(=O)N2)NC(=O)[C@H](CSSC[C@@H](C(=O)N[C@@H](CCCCN)C(=O)N[C@@H](Cc2ccc(O)cc2)C(=O)N[C@H](C(=O)N[C@@H](Cc2ccccc2)C(N)=O)C(C)C)NC(=O)[C@H](Cc2c[nH]c4ccccc24)NC(=O)[C@H](CCCCN)NC(=O)[C@H](Cc2c[nH]cn2)NC(=O)[C@H]([C@@H](C)O)NC(=O)[C@H](CCCNC(=N)N)NC(=O)[C@H](CO)NC3=O)NC(=O)[C@H](CCCCN)NC(=O)[C@H](CC(=O)O)NC(=O)[C@H](CC(N)=O)NC(=O)[C@H](CC(=O)O)NC(=O)[C@@H]2CCCN2C1=O` [compound 667], the values for the IC50 in experiment [1] (setting [5]), in experiment [2] (setting [6]) and in experiment [3] (setting [7]) were 0.12 µM, > 5 µM and 0.017 µM, respectively.

Source of the values: US9340590B2 (priority 2011, dated 2016).
